The subject of experiment [1] is histone acetylation in P. falciparum 3D7-A10. Nature of the experiment: Histone acetylation Western blot, wild-type 3D7-A10. The experiment is classed as cell-based. The conditions noted are these: trophozoites, 3 h exposure. For orientation: A western blot detects proteins with antibodies after separation by electrophoresis.
Description: (§1) Synchronous trophozoite-stage (24-32hr post-invasion) cultures at 3–5% parasitemia and 2% hematocrit in complete medium were exposed to test compounds for 3 hr at 37°C. […] DMSO was tested at 0.1% as the vehicle-only control. Following drug exposure, parasites were isolated via saponin lysis ice-cold 0.1% saponin in phosphate-buffered saline (PBS). Isolated parasites were washed 3x in ice-cold PBS containing protease inhibitor cocktail (cOmplete mini, Roche) and lysed in 1x Laemmli Sample Buffer (Biorad) with 5% beta-mercaptoethanol (Sigma-Aldrich). Samples were heated at 99°C for 10 min before centrifugation. Equal quantities of solute were separated on Protean TGX Precast Gels (4–20% gradient) in Tris-SDS-glycine buffer, transferred to nitrocellulose membrane by iblot (Invitrogen), and blocked for 1h in tris-buffered saline (TBS) with 5% skim milk powder. Blocked membranes were probed with antibodies recognising tetra-acetylated H4 (H4ac4, Sigma-Aldrich 06–866), H4K8ac (CST #2594), H3K9ac (CST #9649) or H3 (CST #4499), at 1:1000 dilution, and PfBiP ([Shonhai et al., 2007]) (at 1:5000 dilution) in 3% milk powder TBS with 0.1% Tween 20 at 4°C overnight and with 800CW goat α-rabbit IgG (Licor) at 1:10,000 dilution. Membranes were visualised using a Licor Odyssey CLX imaging system and quantified using ImageJ.
The target in a further experiment is T1, HsAcAS WT (Homo sapiens, UniProt Q9NR19).
T1 construct: made in house; host or cells: Expi293 cells (pCDNA 3.1, transient transfection)
T1 sequence (Q9NR19 whole entry): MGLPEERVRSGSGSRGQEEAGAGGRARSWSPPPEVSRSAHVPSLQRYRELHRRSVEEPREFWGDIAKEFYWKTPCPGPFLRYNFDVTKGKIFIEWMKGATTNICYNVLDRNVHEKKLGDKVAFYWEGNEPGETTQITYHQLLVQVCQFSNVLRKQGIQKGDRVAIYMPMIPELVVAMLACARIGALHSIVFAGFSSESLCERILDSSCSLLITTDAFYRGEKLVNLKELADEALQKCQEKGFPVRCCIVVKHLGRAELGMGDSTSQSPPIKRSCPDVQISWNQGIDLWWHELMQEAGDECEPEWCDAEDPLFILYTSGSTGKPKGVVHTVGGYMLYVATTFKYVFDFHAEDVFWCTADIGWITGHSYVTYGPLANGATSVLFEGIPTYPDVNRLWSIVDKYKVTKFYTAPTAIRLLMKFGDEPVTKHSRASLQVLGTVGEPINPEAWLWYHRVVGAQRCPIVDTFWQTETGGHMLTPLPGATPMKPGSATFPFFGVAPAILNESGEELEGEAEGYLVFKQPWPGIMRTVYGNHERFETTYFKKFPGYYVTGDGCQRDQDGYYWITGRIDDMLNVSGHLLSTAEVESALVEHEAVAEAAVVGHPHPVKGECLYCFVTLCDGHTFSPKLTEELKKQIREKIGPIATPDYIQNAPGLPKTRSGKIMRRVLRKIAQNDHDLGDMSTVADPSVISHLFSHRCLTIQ
Nature of the experiment: HsAcAS Rapid-Fire QQQ mass spectrometry assay. The format is biochemical. The conditions noted are these: for IC50: approximate Km for each substrate, read-out: IC50 (μM), AcAS HsWT. As to the method: The human form of acetyl-CoA synthetase was assayed in 100 mM HEPES (pH7.4), 100 mM NaCl, 250 mM KCl, 50 mM MgCl2, 1 mM DTT, 0.005% NP40, 400 μM ATP, 70 μM acetate, 40 μM CoA and 2 nM recombinant HsAcAS. Assay ready plates containing different concentrations of inhibitor were prepared using an Echo 550 acoustic dispenser (Labcyte Inc.), dispensing 150 nL of compound per well. Assays were conducted in a total volume of 15 μL for 30 min at room temperature before being quenched with the addition of 85 μL 1% formic acid containing 0.5 μg/mL n-Propionyl coenzyme A (Sigma P5397) as an internal standard. Reaction products were detected using a RapidFire 365 system (Agilent, Santa Clara, CA) coupled with a triple quadrupole mass spectrometer 6740 (Agilent).
The sipper was washed to minimize carryover with 0.1% TFA in deionized water followed by 0.1% TFA in acetonitrile/deionized water (95%/5%, v/v). The sipper was washed to minimize carryover with deionized water followed by acetonitrile. Aspiration time, load/wash time, elution time, and re-equilibration time were set to 600, 3000, 5000, and 500 ms, respectively, with a cycle time of approximately 10 s. The triple-quadrupole mass spectrometer with electrospray ion source was operated in positive multiple reaction monitoring (MRM) mode. The detailed setting for the mass spectrometer parameters was as follows: capillary voltage, 3000 V; gas temperature, 350°C; gas flow, 7 L/min; nebulizer, 40 psi; sheath gas temperature, 300°C′ sheath gas flow, 11 L/min; and nozzle voltage, 1500 V. The MRM transitions for acetyl-CoA as a reaction product were set as 810.1/303.1 & 810.1/428.1 (quantifier & qualifier with dwell time of 50 ms, 100V fragmentor, and collision energies of 30 & 28 eV respectively) and for n-propionyl-CoA as an internal standard as 824.2/317.2 & 824.2/428.0 (quantifier & qualifier with dwell time of 50 ms, 100V fragmentor, and collision energies of 32 & 26 eV respectively). The mass resolution window for both parental and daughter ions was set at as a unit (0.7 Da). Peak areas were integrated, and area ratios of acetyl-CoA to the internal standard (n-propionyl CoA) were used for quantitation. Data were converted to % inhibition relative to the uninhibited enzyme control and fitted to Equation 3.

The test system of experiment [2] is P. falciparum NF54-PfAcAS-cKD. Nature of the experiment: cKD compound susceptibility assay (luminescence, 72 hr), PfAcAS cKD line. The format is cell-based. Conditions: Plasmodium falciparum. From the text:
We used CRISPR-Cas9 to modify the native PfAcAS locus and install the linear pSN054 donor vector ([Nasamu et al., 2020]) that incorporates a C-terminal V5 and 2xHA-tags, a 10x aptamer array, and the TetR-DOZI expression cassette containing the blasticidin S deaminase gene, the reporter gene Renilla luciferase (RLuc), and the fusion proteins TetR-DOZI ([Ganesan et al., 2016]). The right homology region (RHR) was PCR amplified and inserted into pSN054 using the I-SceI restriction site. Fragments corresponding to the left homology region (LHR) fused to the re-codonized 3′-end of the gene (bp 2710–2991) as well as the target-specifying guide RNA sequence were synthesized using the BioXP 3200 System (SGI-DNA) and cloned into pSN054 using restriction sites FseI/AsisI and AflII, respectively. Donor vector generation was carried out via Gibson assembly, and the final construct was confirmed by restriction digests and Sanger sequencing. Primers used in this study are listed in the key resources table.
Transfection into Cas9-and T7 RNA polymerase-expressing NF54 parasites was carried out by preloading erythrocytes with the AcAS_pSN054 plasmid as described previously ([Deitsch et al., 2001]). Briefly, 50–100 μg of purified plasmid DNA were mixed with human red blood cells in 0.2 cm cuvettes and subjected to 8 square wave electroporation pulses of 365 V for 1 ms each, separated by 0.1 s. The DNA preloaded red blood cells were inoculated with schizont-stage parasites (e.g. NF54attB, NF54:pCRISPR) to achieve starting parasitemias ≤1% in RPMI 1640 Complete media. Cultures were maintained in 500 nM anhydrotetracycline (aTc; Sigma-Aldrich 37,919) and 2.5 μg/mL Blasticidin S (RPI Corp B12150–0.1). Emergence of transfectants was monitored via Giemsa smears and RLuc measurements. Clonal parasites were obtained by limiting dilution ([Rosario, 1981]).
Synchronous ring-stage, aptamer-regulated PfAcAS and control parasite lines were resuspended in varying aTc concentrations (high = 50 nM, low = 1 nM, and no aTc) and distributed into the drug plate. DMSO carrier and chloroquine (200 nM) wells served as positive and negative controls.

The next experiment relates to P. falciparum parasites. In words: Isobologram analyses (fractional IC50 of compound combinations). The format is cell-based. Conditions: combination with TSA.
Experiment [3] deals with histone acetylation in P. falciparum Dd2 parent. In words: Histone acetylation Western blot, Dd2 parent. The experiment is classed as cell-based. The conditions noted are these: trophozoites, 3 h exposure.
Description: as §1
Experiment [4] has as its system P. falciparum MMV084978-resistant clones (Dd2-B2 derived). In words: Dose-response assay of MMV084978-selected resistant clones. The experiment is classed as cell-based. The conditions noted are these: Plasmodium falciparum. The protocol:
Ring-stage parasites were cultured for 72 hr at 1% hematocrit and 1% starting parasitemia in 384-well black clear-bottom plates containing test compounds plated in triplicate in 12-point serial dilutions. […] Alternatively, Dd2-B2 ring-stage cultures at 0.3% parasitemia and 1% hematocrit were exposed for 72 hr to a range of ten drug concentrations that were 2-fold serially diluted in duplicates along with drug-free controls. Parasite survival was assessed by flow cytometry on an Accuri C6 (BD Biosciences) using SYBR Green and MitoTracker Deep Red FM (Life Technologies) as nucleic acid stain and vital dyes respectively. EC50 values were calculated using a nonlinear regression curve fit in Prism Software version 8 (GraphPad).
Bulk cultures were tested for reduced drug susceptibility and individual clones were isolated by limiting dilution.

Setting [5] is: NF54, read-out: PfAcAS cKD EC50 ± SD (nM) (1nM aTc).
[6] abbreviates: NF54, read-out: PfAcAS cKD EC50 ± SD (nM) (50nM aTc).

One may read the IC50 as the concentration needed to halve the response being measured. Broadly, the EC50 is the concentration giving half of the maximal effect.

Like-named read-outs stand apart in the source and are kept apart here. Bounds are passed on as bounds.

Regarding `O=C1C(O)=C([C@H]2CC[C@H](c3ccc(Cl)cc3)CC2)C(=O)c2ccccc21` [Atovaquone, reference compound], the “acetylation of H4K8ac, H3K9ac and tetra-acetylated H4 (H4Ac4) histone markers relative to DMSO” value in experiment [1] was “no effect”.

Take `CCN(CC)S(=O)(=O)c1ccc(Cl)c(C(=O)Nc2ccc3nc(C)sc3c2)c1` [MMV019721]: the IC50 at HsAcAS WT is over 100 µM. For the same compound, the concentration for a half-maximal effect (EC50) in experiment [2] (setting [5]) was found to be 7 ± 1.2 nM; in experiment [2] (setting [6]) it was 43 ± 8.5 nM. In the experiment with P. falciparum parasites, the “interaction in isobologram analyses with the HDAC inhibitor TSA” value is “strongly antagonistic”. Moreover, in experiment [3], the “histone acetylation in Dd2 parent” value is “dose-dependent reduction”.

Take `O=C(NNC(=O)c1csnn1)c1ccc(Cl)cc1` [MMV084978]: the “Hill, AcAS HsWT” value on HsAcAS WT is reported as 0.85 ± 0.07. At HsAcAS WT, the 50% inhibitory concentration (IC50) was 18 ± 1.9 µM. In addition, the concentration giving a half-maximal response (EC50) is over 9600 nM in experiment [4] (DD2, read-out: MMV084978 mean EC50 (nM) ± SD (n), selection 1, Dd2-B2, clone A7, AcAS:A597V); 2500 ± 42 nM in experiment [4] (DD2, read-out: MMV084978 mean EC50 (nM) ± SD (n), selection 1, Dd2-B2, clone C11, sequencing not determined); 2600 ± 47 nM in experiment [4] (DD2, read-out: MMV084978 mean EC50 (nM) ± SD (n), selection 1, Dd2-B2, clone E5, sequencing not determined); 2800 ± 260 nM in experiment [4] (DD2, read-out: MMV084978 mean EC50 (nM) ± SD (n), selection 1, Dd2-B2, clone F1, sequencing not determined); 2100 ± 53 nM in experiment [4] (DD2, read-out: MMV084978 mean EC50 (nM) ± SD (n), selection 1, Dd2-B2, clone F9, sequencing not determined); 2500 ± 24 nM in experiment [4] (DD2, read-out: MMV084978 mean EC50 (nM) ± SD (n), selection 1, Dd2-B2, clone G8, AcAS:A652S). In addition, the EC50 turned out to be 2400 ± 33 nM in experiment [4] (DD2, read-out: MMV084978 mean EC50 (nM) ± SD (n), selection 2, Dd2-B2, clone B8, sequencing not determined); 2400 ± 1.7 nM in experiment [4] (DD2, read-out: MMV084978 mean EC50 (nM) ± SD (n), selection 2, Dd2-B2, clone C4, sequencing not determined); 2600 ± 76 nM in experiment [4] (DD2, read-out: MMV084978 mean EC50 (nM) ± SD (n), selection 2, Dd2-B2, clone E9, AcAS:A652S); 2600 ± 7 nM in experiment [4] (DD2, read-out: MMV084978 mean EC50 (nM) ± SD (n), selection 2, Dd2-B2, clone F8, sequencing not determined); 970 ± 41 nM in experiment [4] (DD2, read-out: MMV084978 mean EC50 (nM) ± SD (n), selection 2, Dd2-B2, clone H12, AcAS:Y607C); 45 ± 4.4 nM in experiment [2] (setting [5]). Besides, the EC50 in experiment [2] (setting [6]) was found to be 240 ± 64 nM.
